Results on 48 compounds are retold here after PubChem BioAssay AID1419 (Emory University Molecular Libraries Screening Center, 2008).

The nature of the test: EBV protein-peptide binding inhibitors, dose response, biochemical, fluorescence polarization (AID 1419). Conditions: cell-free protein-peptide binding, 2 h; for fold change: measured here: P channel fold over control, at 54 µM. On the technique in general: In fluorescence polarisation assays a small probe gives low polarisation when free and higher when bound to something large.

SMILES strings stand for the structures. Activity calls are given as the source filed them. How the calls were made is not given here. Bounds are passed on as bounds.

As to `N=C1S/C(=C\c2ccc(-c3cccc(Cl)c3)o2)C(=O)N1c1nccs1`, the IC50 is 5.78 µM and the fold change was found to be 2.

As for `Nc1ccc2nc3c(=O)[nH]c(=S)[nH]c3nc2c1`, the concentration for half-maximal inhibition (IC50) is less than 0.42 µM and the fold change came to 86.2.

For the compound `CCC1=NN2C(=N)/C(=C\c3cccn3-c3ccc(Br)cc3)C(=O)N=C2S1`, the IC50 was > 54 µM (inactive) and the fold change is 1.04.

In the case of `CSc1nc(SCC(=O)O)c2sc3nc(-c4ccccc4)c4c(c3c2n1)CCC4`, the IC50 was 3.47 µM and the fold change is 1.08.

For the compound `Fc1ccc(/C=N/NC2=Nc3cccc4cccc2c34)cc1`, the IC50 is 7.4 µM and the fold change turned out to be 3.32.

Regarding `Cn1c(/N=C/c2c(O)ccc3ccccc23)nc2ccccc21`, the IC50 was 3.17 µM and the fold change was 41.9.

`c1ccc2c(c1)CCCN2Cc1nnnn1CC1CCCO1` (stereo unspecified): the 50% inhibitory concentration (IC50) is 4.98 µM and the fold change was determined as 2.55.

Take `CCOC(=O)c1cc2n(c1N)-c1ccccc1C2=O`: the IC50 is less than 0.42 µM and the fold change is 104.

`COc1ccc(CCNc2nc(-c3cccnc3)cs2)cc1OC`: the IC50 was > 54 µM (inactive) and the fold change was 1.04.

Turning to `O=C(OCCN1C(=O)c2cccc3c(N4CCOCC4)ccc(c23)C1=O)c1cccc(Cl)c1`, the concentration for half-maximal inhibition (IC50) was 2.52 µM and the fold change was found to be 56.6.

As to `Clc1ccc(C2=CC(c3ccco3)n3ncnc3N2)cc1` (stereo unspecified), the IC50 was 3.9 µM and the fold change turned out to be 3.17.

For `CC(C)(O)[C@H]1O[C@H]2CC[C@@]3(C)[C@@](O)(CC[C@H]4Cc5c([nH]c6ccccc56)[C@@]43C)C2=CC1=O`, the IC50 was 2.03 µM and the fold change came to 3.36.

`Cc1ccc(-c2noc(CCC(=O)N3CCCC3)n2)cc1`: the IC50 was > 54 µM (inactive) and the fold change was found to be 1.01.

On to `CCC1=NN2C(=N)/C(=C\c3ccc(OCc4cc(=O)n5nc(CC)sc5n4)c(OC)c3)C(=O)N=C2S1`, for which the IC50 was > 54 µM (inactive) and the fold change was determined as 1.08.

Take `O=C1CCCC2=C1Sc1ccc(Cl)cc1N2`: the IC50 is 5.79 µM and the fold change came out at 2.69.

Regarding `CC1CCc2cccc3c2N1c1cc(C#N)c(C#N)cc1O3` (stereo unspecified), the half-inhibitory concentration (IC50) was 6.6 µM and the fold change came out at 8.38.

`CCc1ccc[n+](-c2[nH]c(=O)sc2/C=N/NC([S-])=Nc2ccccc2)c1`: the 50% inhibitory concentration (IC50) was 22.1 µM and the fold change came out at 2.13.

`O=C(NCCCO)Nc1ccc2nc(-c3ccco3)c(-c3ccco3)nc2c1`: the IC50 was 4.06 µM and the fold change amounted to 5.99.

As for `CCSc1nnc(-c2sc3nnc(-c4ccccc4)c(-c4ccccc4)c3c2N)o1`, the IC50 was 2.2 µM and the fold change amounted to 36.9.

On to `CCCNC(=O)Cn1c(=O)/c(=C\c2ccc(-c3cccc([N+](=O)[O-])c3)o2)s/c1=C\C(=O)C(C)(C)C`, for which the half-inhibitory concentration (IC50) was 1.02 µM and the fold change was 8.62.

For the compound `CCCN1CC=C2C(C#N)=C(N)C(C#N)(C#N)C(c3cccc(OC)c3OC)C2C1` (stereo unspecified), the half-inhibitory concentration (IC50) is 1.28 µM and the fold change was 7.4.

With `COc1cc(C2C=C(c3cccs3)Nc3ncnn32)cc(OC)c1OC` (stereo unspecified), the IC50 was less than 0.42 µM and the fold change is 13.5.

For `COc1ccc2c(c1)c1nc3ccccc3nc1n2CC(=O)OC(C)C`, the IC50 is 1.21 µM and the fold change came out at 6.79.

Take `COc1ccccc1N1C(=O)C2C(C(=O)c3ccccc3)=NN(c3ccc(C)cc3)C2C1=O` (stereo unspecified): the IC50 was 3.66 µM and the fold change amounted to 19.5.

With `CCOc1ccc2[nH]c(=O)c(CN(CC3COCCO3)C(=O)C3CC3)cc2c1` (stereo unspecified), the IC50 is > 54 µM (inactive) and the fold change was found to be 1.04.

Regarding `C=CCc1cccc2cc(C(=O)Nc3ccc(S(=O)(=O)Nc4nnc(CC)s4)cc3)c(=O)oc12`, the IC50 was > 54 µM (inactive) and the fold change came to 1.08.

For `O=[n+]1c2c(n([O-])c3cc(F)c(N4CCCC4)cc31)CCCC2`, the 50% inhibitory concentration (IC50) was less than 0.42 µM and the fold change was found to be 11.6.

Take `C=CCN1C(=O)/C(=C/c2ccc(N(C)C)cc2)S/C1=N\c1nnc(CC)s1`: the IC50 was 9.51 µM and the fold change came out at 10.2.

In the case of `CN(CCC#N)C(=O)COC(=O)c1c2c(nc3ccccc13)/C(=C/c1ccco1)CC2`, the IC50 is 3.18 µM and the fold change was found to be 2.86.

For `CCOc1ccc(-c2csc(NC(=O)CSC3=NC(=O)CN3C(C)=O)n2)c2ccccc12`, the IC50 was > 54 µM (inactive) and the fold change worked out at 0.947.

As to `COc1ccc2nc(N3CCC(C)CC3)c(C#N)cc2c1`, the IC50 is 9.17 µM and the fold change came to 1.94.

Take `CCOC(=O)C1=NNC(C(=O)c2ccc(Cl)cc2)C1c1ccc(OC)cc1` (stereo unspecified): the IC50 is > 54 µM (inactive) and the fold change was 0.933.

In the case of `CS(=O)(=O)N1N=C(c2ccccc2)CC1c1ccc2c(c1)OCO2` (stereo unspecified), the IC50 is 9.83 µM and the fold change came to 4.93.

Turning to `N=C1/C(=C\c2ccc(-c3cccc(C(=O)O)c3)o2)C(=O)N=C2SC=C(c3ccccc3)N12`, the IC50 is 4.25 µM and the fold change came to 1.23.

Turning to `N=c1oc2cc(O)ccc2cc1C(=O)Nc1nc2ccccc2s1`, the 50% inhibitory concentration (IC50) was 13 µM and the fold change turned out to be 2.65.

On to `Cc1ccc(C2=N/C(=C\c3c(C)nn(-c4ccccc4)c3N3CCCC3)C(=O)O2)cc1`, for which the half-maximal inhibitory concentration (IC50) was 5.71 µM and the fold change was 6.13.

Turning to `CC[C@@H](CO)NC(=O)[C@@H]1C=C2c3cccc4c3c(cn4C)C[C@H]2N(C)C1`, the IC50 is > 54 µM (inactive) and the fold change was 1.44.

Consider `CC(C)(C)N1CC(c2nc3ccccc3n2CCOc2ccccc2)CC1=O` (stereo unspecified), for which the IC50 is 15.4 µM and the fold change is 1.08.

In the case of `O=c1c(O)cccc2cc(O)c(O)c(O)c12`, the IC50 is 2.85 µM and the fold change is 1.86.

As to `CCn1c2ccccc2c2cc(NC(=O)c3coc(=O)c(Br)c3)ccc21`, the IC50 is less than 0.42 µM and the fold change is 21.9.

Regarding `CN1C(=O)N(C)c2ccc(C=O)c3cccc1c23`, the IC50 was 4.91 µM and the fold change is 2.37.

As to `CC1=CC(=C(C#N)c2nc3ccccc3s2)C=C(C)N1CC1CCCO1` (stereo unspecified), the IC50 is 3.9 µM and the fold change came to 9.43.

Take `COc1ccc(NC(=O)CCl)cn1`: the 50% inhibitory concentration (IC50) was 2.57 µM and the fold change came to 2.89.

On to `O=c1nc2s/c(=C\c3ccc(-c4ccccc4[N+](=O)[O-])o3)c(=O)n2nc1-c1ccccc1`, for which the half-inhibitory concentration (IC50) is less than 0.42 µM and the fold change came out at 9.05.

With `CCCC(=O)NC(Oc1ccc(C(C)=O)cc1)C(Cl)(Cl)Cl` (stereo unspecified), the IC50 was > 54 µM (inactive) and the fold change stood at 0.993.

Take `CC1=CC(=C(C#N)c2nc3ccccc3s2)C=C(C)N1Cc1ccco1`: the half-maximal inhibitory concentration (IC50) was 3.8 µM and the fold change turned out to be 15.7.

As for `c1ccc(-c2[nH]c(-c3ccccc3)[n+](CC3CO3)c2-c2ccccc2)cc1` (stereo unspecified), the IC50 is > 54 µM (inactive) and the fold change was found to be 0.99.

With `COc1cc(/C=C2\SC(=O)N(Cc3ccc(Cl)cc3)C2=O)cc([N+](=O)[O-])c1O`, the IC50 was 24.9 µM and the fold change worked out at 1.04.

As usually defined, the IC50 is the concentration at which inhibition is half-maximal.
